The results in this text go back to patent US9809861B2, “Method of evaluating inhibitory effect on damp-dry malodor” (Kao Corporation, priority 2012, dated 2017).

The first assay has as its system Moraxella sp. KMC4-1. Nature of the assay: Quantification of 4M3H produced in model examination cloth (LC-FL). As to conditions: cotton cloth with 0.5 mg 14-methylhexadecanoic acid, 24 hours, 37° C.; relative to no test substance; Substance (1) 10 ppm, (2)(3)(5)(6) 100 ppm, (4) 500 ppm. In kind it is cell-based. The method, then:
(§1) Subsequently, by using Moraxella sp. KMC4-1, which is one kind of the microorganisms which produce damp-dry malodor-causing substances, sensory evaluation of the inhibitory effect on damp-dry malodor by the test substance and measurement of production amount of 4M3H as one kind of the damp-dry malodor-causing substances were carried out.
(§2) Moraxella sp. KMC4-1 was inoculated as a test microbe onto SCD-LP agar medium (manufactured by Wako Pure Chemical Industries, Ltd.) and cultured for 1 to 2 weeks at room temperature to give a pre-culture plate. Colony surface was scraped off from the pre-culture plate, suspended in 5 mL of physiological saline, and OD600 was adjusted to 1.0 (about 10^8 CFU/mL).
(§3) A cotton jersey cloth obtained in a constant state after sterilization and drying at 25° C., 40% RH (cotton jersey manufactured by Shikisensha Colo., LTD., without silket finish) was cut to a square of 2 cm×2 cm. To the cloth, a solution prepared by dissolving 0.5 mg of 14-methylhexadecanoic acid, as a sebaceous dirt component, in 0.1 mL methanol, was applied. Then, methanol was dried to solid, to give a model examination cloth.
[…] It was then dried for 2 hours at room temperature to dry methanol. Thereafter, 0.1 mL of the microbe suspension was coated onto the model examination cloth, and cultured for 24 hours in a petri dish using an incubator at 37° C. with relative humidity of 70%, to obtain a microbe-fixed cloth.
Further, the model examination cloth was analyzed by using LC-FL (liquid chromatography apparatus: HITACHI ELITE LaChrom (trade name, manufactured by Hitachi, Ltd.), column: Lichrosphere 100 RP-8(e) (trade name, manufactured by Agilent Technologies, Inc., 5 μm×125 mm×4 mmφ), column temperature: 40° C., eluent: a mixed solution of acetonitrile/water=7/3 (volume ratio), flow rate: 1.0 mL/min, detector: excitation wavelength (365 nm), measurement wavelength (412 nm)), and thereby quantification of 4M3H thus produced in the model examination cloth was carried out. Ratio of the produced 4M3H amount relative to the 4M3H production amount when no test substance was added was calculated, and then ratio of suppressing 4M3H production was calculated.
As for `CCCCCCCCCC=O` [Substance (1)], the “Ratio of suppressing 4M3H production” value is on record as 100%.

Take `CC(=O)OC(C)(C)Cc1ccccc1` [Substance (2)]: the “Ratio of suppressing 4M3H production” value turned out to be 100%.

In the case of `CNc1ccccc1C(=O)OC` [Substance (3)], the “Ratio of suppressing 4M3H production” value was found to be 91%.

On to `CCCCCCCC/C=C\CCCCCCCC(=O)O` [Substance (4)], for which the “Ratio of suppressing 4M3H production” value was 81%.

Regarding `O=C[C@H](O)[C@@H](O)[C@H](O)[C@H](O)CO` [Substance (5)], the “Ratio of suppressing 4M3H production” value turned out to be 0%.

Still in this assay, the particulars now being: summary of Table 14.
Take `CCCCCCCCCC=O` [Substance (1)]: the “4M3H production inhibition ratio” value is on record as “high”.

Take `CC(=O)OC(C)(C)Cc1ccccc1` [Substance (2)]: the “4M3H production inhibition ratio” value is on record as “high”.

On to `CNc1ccccc1C(=O)OC` [Substance (3)], for which the “4M3H production inhibition ratio” value is “high”.

As for `CCCCCCCC/C=C\CCCCCCCC(=O)O` [Substance (4)], the “4M3H production inhibition ratio” value is recorded as “high”.

A further assay has as its system Moraxella sp. KMC4-1. Nature of the assay: Growth-inhibitory test. The settings on record: SCD liquid medium, 24 hours, 35° C.; Substance (2) 100 ppm, (4) 500 ppm. The class given is cell-based. The method, then: To 4 mL of SCD liquid medium (manufactured by NIHON PHARMACEUTICAL CO., LTD), the substances (1) to (7) each were added so as to be the final concentration described in Table 15. As a control, a medium system not added with any test substance was also prepared. To the medium, the precultured Moraxella sp. KMC4-1 was inoculated so as to be the initial concentration of 10^4 CFU/mL and cultured for 24 hours at 35° C. while shaking (160 rpm). After that, it was subjected to serial dilution using LP dilution solution (NIHON PHARMACEUTICAL CO., LTD). Then, by using SCD-LP agar medium (NIHON PHARMACEUTICAL CO., LTD), the number of bacteria remained alive was determined.
As for the growth-inhibitory and the bactericidal effect, the evaluation was made as follows: compared to the control, when there was the bacteria number decrease of log 3 or more, it was rated as “A”; when there was the bacteria number decrease of log 1 or more but less than log 3, it was rated as “B”; and when there was the bacteria number decrease of less than log 1, it was rated as “C”.
Turning to `CC(=O)OC(C)(C)Cc1ccccc1` [Substance (2)], the “Growth-inhibitory effect: bacteria number decrease compared to the control” value came to 2 log.

Consider `CCCCCCCC/C=C\CCCCCCCC(=O)O` [Substance (4)], for which the “Growth-inhibitory effect: bacteria number decrease compared to the control” value turned out to be 2 log.

The assay is the same for the next values; noted with them: SCD liquid medium, initial 10^4 CFU/mL, 24 hours, 35° C.; Substance (1) 10 ppm, (2)(3)(5)(6) 100 ppm, (4) 500 ppm.
For `CCCCCCCCCC=O` [Substance (1)], the Growth-inhibitory effect result is listed as “C (the bacteria number decrease of less than log 1)”.

In the case of `CC(=O)OC(C)(C)Cc1ccccc1` [Substance (2)], the Growth-inhibitory effect result was “B (the bacteria number decrease of log 1 or more but less than log 3)”.

Regarding `CNc1ccccc1C(=O)OC` [Substance (3)], the Growth-inhibitory effect result was “C (the bacteria number decrease of less than log 1)”.

In the case of `CCCCCCCC/C=C\CCCCCCCC(=O)O` [Substance (4)], the Growth-inhibitory effect result is recorded as “B (the bacteria number decrease of log 1 or more but less than log 3)”.

For the molecule `O=C[C@H](O)[C@@H](O)[C@H](O)[C@H](O)CO` [Substance (5)], the Growth-inhibitory effect result is “C (the bacteria number decrease of less than log 1)”.

In the next assay the test system is Moraxella sp. KMC4-1. Nature of the assay: Sensory evaluation of inhibitory effect on damp-dry malodor on model examination cloth. The class given is cell-based. The settings on record: summary of Table 14. The procedure:
as §1, §2, §3
Methanol solution was prepared for each test substance and applied at 20° C. on the model examination cloth such that applied amount of each test substance was […] per gram of the model examination cloth. It was then dried for 2 hours at room temperature to dry methanol. Thereafter, 0.1 mL of the microbe suspension was coated onto the model examination cloth, and cultured for 24 hours in a petri dish using an incubator at 37° C. with relative humidity of 70%, to obtain a microbe-fixed cloth.
The sensory test of the model examination cloth was evaluated by a professional panel who can distinguish different subjects based on the damp-dry malodor. A sample, in which an inhibitory effect on damp-dry malodor was confirmed, was rated as “A”; a sample, in which it was difficult to determine the inhibitory effect on damp-dry malodor or a Weak inhibitory effect on damp-dry malodor was confirmed, was rated as “B; and a sample, in which no inhibitory effect on damp-dry malodor was confirmed, was rated as “C”.
For the molecule `CCCCCCCCCC=O` [Substance (1)], the “inhibitory effect on damp-dry malodor” value was “an inhibitory effect on damp-dry malodor was observed”.

Regarding `CC(=O)OC(C)(C)Cc1ccccc1` [Substance (2)], the “inhibitory effect on damp-dry malodor” value is recorded as “an inhibitory effect on damp-dry malodor was observed”.

For `CNc1ccccc1C(=O)OC` [Substance (3)], the “inhibitory effect on damp-dry malodor” value is given as “an inhibitory effect on damp-dry malodor was observed”.

In the case of `CCCCCCCC/C=C\CCCCCCCC(=O)O` [Substance (4)], the “inhibitory effect on damp-dry malodor” value is reported as “an inhibitory effect on damp-dry malodor was observed”.
